These results are taken from US12605371B2, “Combination therapy for cancer” (The Board of Trustees of the Leland Stanford Junior …, priority 2020, dated 2026).

“Also recorded” adds a separate entry of the source.

In test [1] the test system is B16 cells. The experiment in a line: B16 pulmonary metastasis model, mice fed DE chow. Format: in vivo, mouse. The protocol: Animals were monitored daily and sacrificed after 2 weeks. […] B16 metastasis model: 0.5×10^6 B16 cells were injected via tail vein into mice. After sacrifice, the lung was isolated and the number of metastatic nodules on surface was counted on both sides, before analyzing the left lobe for melanin determination. The left lobe of lung from each mouse was incubated in 1N NaOH/10% DMSO for 2 hr at 80° C. before centrifugation at 12,000 rpm for 10 min at room temperature. The absorbance at 470 nm of the supernatant was measured and compared to a standard of synthetic melanin (Sigma, St. Louis, MO). Lung was weighed before the start of process and melanin content was expressed as μg/mg protein determined by protein assay of lung tissue.

The test system of the next test is B16 tumors. The experiment in a line: B16 subcutaneous (flank) tumor model, mice fed dabigatran etexilate chow. It counts as in vivo, mouse. How it is done: B16 subcutaneous tumor inoculation: B16 cells were grown until confluent and 2×10^6 cells were inoculated subcutaneously into WT, OPN-KI and OPN-KO mice. Mice were monitored daily for tumor growth. Tumor size was measured and volume calculated using the equation (width×width×length)/2. Animals were euthanized using CO2 and blood collected by cardiac puncture and tumors were isolated carefully. Blood was centrifuged at 2500 rpm for 20 min to prepare plasma and stored at −80° C. Tumors were weighed and measured. Part of the tumor was stored in formaldehyde for immunohistochemistry, part of it was frozen and stored at −80° C. for preparation of tumor lysates for OPN ELISAs. […] Animals were monitored daily and sacrificed after 2 weeks.

Test [2] has as its system factor Xa-protease-activated receptor 2 signaling in TAMs. Particulars: in vivo; cited from earlier work.
The subject of test [3] is B16 cells. The experiment in a line: Apoptosis assay (camptothecin, Annexin V), B16 cells. Particulars: 10 nM, 20 μM camptothecin, 4 hr. Format: cell-based, mouse. The protocol:
Apoptosis assay: 1×10^5 B16 cells were cultured in DMEM without serum overnight before addition of 20 μM camptothecin (Abcam, Burlingame, CA) in the presence of BSA or OPN fragments (10 nM). Cells were then incubated for 4 hr before addition of 200 μl of binding buffer. The plate was centrifuged at 400 g for 5 min and supernatant discarded. Annexin V FITC stain (Cayman chemicals, Ann Arbor, MI) was added to the cells and incubated at RT for 10 min in the dark. Cells were centrifuged as described above and 100 μl of binding buffer was added to each cell and fluorescence intensity measured at 485/535 nm (excitation/emission). Apoptotic index was calculated by dividing the camptothecin-treated cells with untreated cells.

Test [4] relates to B16 cells. The experiment in a line: Cell migration assay (transwell), B16 cells. It counts as cell-based, mouse. Particulars: 10 nM, 24 hr. How it is done:
Cell migration assay: 10^5 B16 cells were placed in the upper chamber of a 6.5 mm transwell with a pore size of 8.0 μm (Sigma, XX). Cells were allowed to settle before the lower chamber was filled with BSA or various OPN fragments (10 nM) in presence of 0.2 mM MnCl2 (Sigma, St Louis, MO) and incubated at 37° C. for 24 hr. Cells that migrated to the lower chamber were centrifuged and resuspended into 90 ul of 1×HBSS (Gibco Life Technologies, Langley, OK) with 10 μl of CCK-8 staining solution (Dojindo Molecular Technologies Inc., Rockville, MD). Cells were incubated for 2 hr before measuring absorbance at 450 nm.

The test system of test [5] is B16 cells. The experiment in a line: Cell adhesion assay, B16 cells. It counts as cell-based, mouse. Particulars: wells coated at 20 nM. How it is done:
Cell adhesion assay: Wells in 96-well plate was coated with either BSA or different OPN fragments at a concentration of 20 nM in coating buffer (Gibco Life Technologies, Langley, OK) and incubated at 4° C. overnight. The plate was then washed thrice with PBS before blocking with 3% BSA for 1 hr. The cells were washed thrice with 1×HBSS containing 0.2 mM MnCl2. 2×10^6 B16 or RAW cells were added to the wells and incubated at 37° C. for 1 hr. Wells were washed and cells fixed with absolute ethanol for 20 min before staining with 0.1% crystal violet. Cells were washed repeatedly with PBS until no violet color was visible, lysed with 0.5% Triton X-100 and absorbance determined at 570 nm.

The subject of another test is RAW cells. The experiment in a line: PGE2 assay, RAW cells. It counts as cell-based, mouse. Particulars: 10 nM. The protocol: PGE2 assay: 5×10^5 RAW cells were plated onto 6-well plate in serum free medium with either BSA or various OPN fragments (10 nM). Cells were cultured overnight before collecting the media and determining PGE2 by ELISA (Enzo, Farmingdale, NY).

For a further test, the target named is thrombin (Homo sapiens, UniProt P00734). The experiment in a line: Thrombin treatment of E. coli produced GST-OPN and GST-OPNR153A, SDS-PAGE. Particulars: thrombin 10 nM, time course. Format: biochemical. How it is done: FIGS. 1A-1D: B16 tumors grow slower in OPN-KO and OPN-KI than WT mice in the flank model. FIG. 1A. Model of OPN cleavages and its functional modulation by thrombin and carboxypeptidase N or B2. OPN-FL=OPN-full length (SEQ ID NO:5); OPN-R=OPN-Arg (SEQ ID NO:6); OPN-L=OPN-Leu (SEQ ID NO:8). DC=dendritic cells. FIG. 1B. Time course of thrombin treatment (10 nM) of E. coli produced GST-OPN and GST-OPNR153A analyzed by SDS-PAGE. FL=full length, NTF=N-terminal fragment, CTF=C-terminal fragment (SEQ ID NO:7). FIG. 1C. Daily determination of B16 tumor volume grown on WT, OPN-KI and OPN-KO mice. FIG. 1D. B16 tumor weight after sacrifice. All data are shown as mean±SEM. Statistical significance was calculated by one-way ANOVA followed by Tukey's multiple comparison test.
The OPN-KI (OPNR153A) mice, similar to OPN-KO mice, were fertile and healthy before challenge, without any phenotypic changes observable in CBC, liver function and kidney function (FIGS. 9 and 10)

The conditions of test [6]: parenteral; particularly limited small cell lung cancers; cited from earlier work.
Test [7] has as its system B16 cells. Particulars: in vivo; cited from earlier work.
[8] abbreviates: OPN-KI or OPN-KO mice, trend, compared to untreated mice of same genotype.
Where [9] appears, read: WT mice, compared to control WT mice, 13 days after inoculation.

With `CCCCCCOC(=O)N=C(N)c1ccc(NCc2nc3cc(C(=O)N(CCC(=O)OCC)c4ccccn4)ccc3n2C)cc1` [DE, dabigatran etexilate], the “melanin content of lungs” value is “decreased” in the test with B16 cells [1] (setting [8]) and “reduced” with B16 cells [1] (setting [9]). The pulmonary metastases result in the test on B16 cells [1] (setting [8]) is listed as “fewer”. Besides, the metastatic nodules/lung result with B16 cells [1] (setting [9]) is “fewer”. Besides, in the test with B16 tumors (OPN-KI (and OPN-KO) mice), the “effect on B16 local tumor growth, weight and volume (in words)” value was “did not further reduce; also recorded: no effect”. Further, the “tumor weight after sacrifice” value in the test with B16 tumors (OPN-KI mice, DE-containing chow, in g) stood at 0.8±0.9; with B16 tumors (WT mice, DE-containing chow, mean±SEM), 1.0 ± 0.2 g. In addition, the “tumor volume after sacrifice” value is 0.73±0.3 cm^3 in the test on B16 tumors (OPN-KI mice, DE-containing chow, mean±SEM) and 1.0±0.2 cm^3 with B16 tumors (WT mice, DE-containing chow from 4 days before B16 inoculation until sacrifice, mean±SEM). In the test on B16 tumors (WT mice), the “B16 tumor growth (in words)” value is “tumor suppression; also recorded: grew slower”.
For `O=C(NC[C@H]1CN(c2ccc(N3CCOCC3=O)cc2)C(=O)O1)c1ccc(Cl)s1` [rivaroxaban], in [2], the “antitumor immunity (in words)” value is given as “promote antitumor immunity”.
For the compound “OPN-CTF: C-terminal OPN fragment after thrombin cleavage (SEQ ID NO:7) (SKSKKFRR; OPN-CTF)”, the “anti-apoptotic effect on B16 cells (in words)” value with B16 cells [3] is given as “no anti-apoptotic effect”. For the same compound, the “B16 chemotaxis/migration relative to OPN-FL (in words: significantly increased or not)” value with B16 cells [4] was “comparable to OPN-FL”.
With “OPN-FL: recombinant full length osteopontin (SEQ ID NO:5) (RGDSVVYGLRSKSKKFRR; OPN-FL)”, in the test on B16 cells [3], the “reduction of B16 cell apoptosis compared to BSA” value (“reduction of B16 cell apoptosis” for short) is approximately 3 fold. In addition, in the test on B16 cells [4], the “B16 cell migration compared to BSA (in words)” value was “increased migration”.
As to “OPN-L: OPN-R with C-terminal arginine removed by CPN or CPB2 (SEQ ID NO:8) (RGDSVVYGL; OPN-L)”, the “reduction of B16 cell apoptosis” value with B16 cells [3] is recorded as approximately 3 fold. For the same compound, in the test with B16 cells [5], the “B16 cell adhesion compared to OPN-R (in words)” value is on record as “reduced adhesion”. In addition, the “B16 chemotaxis/migration relative to OPN-FL (in words: significantly increased or not)” value in the test on B16 cells [4] was “not”.
For “OPN-R: thrombin-cleaved OPN N-terminal fragment ending in Arg (SEQ ID NO:6) (RGDSVVYGLR; OPN-R)”, the “reduction of B16 cell apoptosis” value in the test on B16 cells [3] is approximately 3 fold. Also, the “B16 cell migration compared to BSA (in words)” value in the test on B16 cells [4] is “increased migration”. Further, the “secretion of PGE2 by RAW cells (in words)” value with RAW cells is “significantly enhanced”.
As to “OPNR153A: mutant OPN with arginine in the thrombin cleavage site mutated to alanine (R153A), expressed in E. coli”, the “thrombin cleavage (in words)” value with thrombin is “resistant to thrombin cleavage”.
Consider heparin, for which the “survival of cancer patients (in words)” value in [6] was “survival benefit”.
On to hirudin, for which the “metastasis of B16 cells (in words)” value in the test on B16 cells [7] is reported as “prevented metastasis”.
